Columns and labels:
Format in all cases: physicochemical
[1] = Solid-state stability under humidity (storage at high humidity; XRPD after DVS); conditions: for stability at various humidity levels: XRPD analysis after DVS
[2] = Dynamic vapor sorption (DVS); conditions: for weight loss in DVS: relative humidity about 0 to 95%
Method: DVS samples are analyzed using a TA Instruments Q5000SA gravimetric water sorption analyzer. The relative humidity is adjusted between about 0-95% and the weight of the sample is continuously monitored and recorded with respect to the relative humidity and time.

[3] = Solid-state stability on drying under vacuum
Method: Form A of the DMF solvate of relugolix is stable, i.e., it is unchanged after prolonged drying (e.g., about 2 days) under vacuum at about 70° C.

Row | stability at various humidity levels [1] | weight loss in DVS [2] | XRPD changes after drying ([3]; about 18 hours at about 30° C. under vacuum) | water absorption in DVS (and secretion of it all) ([2]; relative humidity about 0 to about 95%) [%] | stability under humidity ([1]; about 97% humidity, ambient temperatures, over a month) | loss of mass in DVS ([2]; at about 90% RH) | stability after prolonged drying ([3]; about 2 days under vacuum at about 70° C.) | SMILES
1 | remains stable | about 2% | no changes | – | – | – | – | CONC(=O)Nc1ccc(-c2sc3c(c2CN(C)C)c(=O)n(-c2ccc(OC)nn2)c(=O)n3Cc2c(F)cccc2F)cc1 [Form A of anhydrous relugolix, 1-[4-[1-[(2,6-difluorophenyl)-methyl]-5-[(dimethylamino)methyl]-3-(6-methoxypyridazin-3-yl)-2,4-dioxothieno-[2,3-d]pyrimidin-6-yl]phenyl]-3-methoxyurea]
2 | remains stable | – | – | ~2 | – | – | – | CONC(=O)Nc1ccc(-c2sc3c(c2CN(C)C)c(=O)n(-c2ccc(OC)nn2)c(=O)n3Cc2c(F)cccc2F)cc1 [Form C of anhydrous relugolix, 1-[4-[1-[(2,6-difluorophenyl)-methyl]-5-[(dimethylamino)methyl]-3-(6-methoxypyridazin-3-yl)-2,4-dioxothieno-[2,3-d]pyrimidin-6-yl]phenyl]-3-methoxyurea]
3 | – | – | – | – | remains unchanged | about 1% | unchanged | CONC(=O)Nc1ccc(-c2sc3c(c2CN(C)C)c(=O)n(-c2ccc(OC)nn2)c(=O)n3Cc2c(F)cccc2F)cc1 [Form A of the DMF solvate of relugolix, 1-[4-[1-[(2,6-difluorophenyl)-methyl]-5-[(dimethylamino)methyl]-3-(6-methoxypyridazin-3-yl)-2,4-dioxothieno-[2,3-d]pyrimidin-6-yl]phenyl]-3-methoxyurea]
4 | remains stable | about 7% | – | – | – | – | – | CONC(=O)Nc1ccc(-c2sc3c(c2CN(C)C)c(=O)n(-c2ccc(OC)nn2)c(=O)n3Cc2c(F)cccc2F)cc1 [Form B of anhydrous relugolix, 1-[4-[1-[(2,6-difluorophenyl)-methyl]-5-[(dimethylamino)methyl]-3-(6-methoxypyridazin-3-yl)-2,4-dioxothieno-[2,3-d]pyrimidin-6-yl]phenyl]-3-methoxyurea]
